Results on ten compounds are retold here after ChEMBL document CHEMBL4715922, “Methionine Adenosyltransferase Inhibitors for the Treatment of Cancer” (ACS Med Chem Lett, 2021).

For test [1], the target named is T1, S-adenosylmethionine synthase isoform type-2 (Homo sapiens, UniProt P31153). Kind of test: Inhibition of MAT2A in human HCT-116 cells assessed as reduction in SAM incubated for 72 hrs by LC-MS/MS analysis. The format is cell-based.
Test [2] relates to HCT-116. Kind of test: Antiproliferative activity against isogenic pair of human HCT-116 cells harboring […] del mutant assessed as reduction in cell growth incubated for 4 days by Cell Titer-Glo assay. The format is cell-based. The note with it: HCT-116, 96 h. (ATP-based viability assays read luminescence as a measure of living cells.)
The target of test [3] is T1, S-adenosylmethionine synthase isoform type-2. Put plainly: Inhibition of recombinant human MAT2A expressed in baculovirus infected Sf9 cells using L-methionine as substrate incubated for 60 mins followed by substrate addition and measured after 60 mins by S-adenosyl methionine assay kit method.
The subject of test [4] is HCT-116. Kind of test: Antiproliferative activity against human HCT-116 cells harboring wild type […] assessed as reduction in cell growth incubated for 4 days by Cell Titer-Glo assay. It is filed as functional, cell-based. The note with it: HCT-116, 96 h.

T1 sequence (P31153 whole entry, canonical isoform): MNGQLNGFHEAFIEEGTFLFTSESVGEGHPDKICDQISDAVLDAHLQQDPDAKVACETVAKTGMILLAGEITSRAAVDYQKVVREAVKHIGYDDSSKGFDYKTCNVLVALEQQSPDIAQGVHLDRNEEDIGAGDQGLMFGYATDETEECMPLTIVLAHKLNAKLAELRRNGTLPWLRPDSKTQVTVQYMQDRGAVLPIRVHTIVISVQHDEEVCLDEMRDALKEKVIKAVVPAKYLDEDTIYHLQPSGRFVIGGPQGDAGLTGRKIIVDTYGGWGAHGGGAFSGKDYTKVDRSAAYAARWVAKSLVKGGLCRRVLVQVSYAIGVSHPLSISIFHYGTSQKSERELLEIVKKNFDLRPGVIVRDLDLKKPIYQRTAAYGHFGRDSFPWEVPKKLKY

As for `[2H]C([2H])([2H])Oc1c2cc(-n3nc4ccc(OCC(F)F)nc4c(-c4ccc(OC(F)F)cc4)c3=O)ccc2nn1C`, the 50% inhibitory concentration (IC50) is under 100 nM in test [1], under 100 nM in test [2], under 100 nM in test [3] and at least 100 nM in test [4].

In the case of `O=c1c(-c2ccc(OC(F)F)cc2)c2nc(OCC(F)F)ccc2nn1-c1ccc2c(c1)CCO2`, the IC50 was under 100 nM in test [1], under 100 nM in test [2], under 100 nM in test [3] and at least 100 nM in test [4].

For the compound `Cn1cc2cc(-n3nc4ccc(OCCC(F)(F)F)nc4c(-c4ccc(OC(F)F)cc4)c3=O)ccc2n1`, the IC50 in test [1] was at least 100 nM; in test [2], at least 100 nM; in test [3] it was under 100 nM; in test [4], at least 1000 nM.

For `O=c1c(-c2ccc(OC(F)F)cc2)c2nc(OCC(F)F)ccc2nn1-c1ccc2ncsc2c1`, the concentration for half-maximal inhibition (IC50) in test [1], in test [2], in test [3] and in test [4] was under 100 nM throughout.

As for `Cn1cc2cc(-n3nc4ccc(OCC(F)F)nc4c(-c4ccc(OC(F)F)cc4)c3=O)ccc2n1`, the IC50 is under 100 nM in test [1], under 100 nM in test [2], under 100 nM in test [3] and at least 100 nM in test [4].

For `CCOc1ccc2nn(-c3ccc4nn(C)cc4c3)c(=O)c(-c3ccc(OC)cc3)c2n1`, the half-maximal inhibitory concentration (IC50) in test [1] was under 100 nM; in test [2] it was under 100 nM; in test [3], under 100 nM; in test [4] it was at least 100 nM.

As for `COc1ccc(-c2c(=O)n(-c3ccc4nn(C)cc4c3)nc3ccc(OCC(F)F)nc23)cn1`, the half-inhibitory concentration (IC50) in test [1] is under 100 nM; in test [2] it was under 100 nM; in test [3], under 100 nM; in test [4], at least 100 nM.

Turning to `Cn1cc2cc(-n3nc4ccc(SCC(F)(F)F)nc4c(-c4ccc(OC(F)F)cc4)c3=O)ccc2n1`, the half-maximal inhibitory concentration (IC50) in test [1] is under 100 nM; in test [2], under 100 nM; in test [3], under 100 nM; in test [4], at least 100 nM.

As for `Cn1cc2cc(-n3nc4ccc(OCC(F)(F)F)nc4c(-c4ccc(OC(F)F)cc4)c3=O)ccc2n1`, the concentration for half-maximal inhibition (IC50) in test [1] is under 100 nM; in test [2] it was under 100 nM; in test [3], under 100 nM; in test [4], at least 100 nM.

With `Cn1cc2cc(-n3nc4ccc(OCC(F)(F)F)nc4c(-c4ccc(Cl)cc4)c3=O)ccc2n1`, the concentration for half-maximal inhibition (IC50) in test [1] is under 100 nM; in test [2], under 100 nM; in test [3], under 100 nM; in test [4], at least 100 nM.

By IC50 is commonly meant the point on the concentration scale where inhibition reaches its midpoint.
